{
  "source": "patent US9980972B2",
  "about": "“Rho kinase inhibitors for use in treating familial amyotrophic lateral sclerosis” (GEORG-AUGUST-UNIVERSITÄT GÖTTINGEN STIFTUNG ÖFFENTLICHEN …, priority 2012, dated 2018)",
  "key": {"[1]": {"system": "spinal cord microglia of SOD1 G93A mice", "experiment": "Microglia morphology subclassification in lumbar spinal cord", "type": "in vivo, mouse", "source_text": "For the evaluation of microglia morphology at least 10 randomly chosen cells per ventral horn were examined with a 63× objective. Cells were classified as “thin ramified”, “stouter ramified” and “rounded” according to a recent morphologic description by Graeber et al. (Graeber, M. B. (2010) Science 330(6005): 783-788). A ramified cell was defined as a cell that has at least 2 processes that are at least twice the size of cell body. Thin ramified cells were defined to have a small diameter of ramifications (<0.5 μm) and a small cell soma diameter (<5 μm). Stoutly ramified cells were defined with thicker ramifications (>0.5 μm) and a larger cell soma diameter (>5 μm).\nIn order to further characterize the differential microglial behaviour in the treatment groups at d100, we performed a morphologic subclassification of microglial cells, as described above under the heading “Quantitative evaluation of spinal cord motoneurons and astroglia, sciatic nerve axons and NMJ”. […] The latter two morphologic cell types are considered to reflect a state of enhanced microglial activation in comparison to a surveillance type which is characterized by smaller cell bodies and thin ramified processes (exemplary microscopic images are shown in FIG. 21 C)."}, "primary microglia": {"system": "primary microglia", "experiment": "Microglial viability, WST-1 metabolic activity", "type": "cell-based, mouse", "conditions": "up to 50 μM Fasudil", "description": "Microglial viability was assayed as metabolic activity using WST-1 reagent (4-[3-(4-iodophenyl)-2-(4-nitrophenyl)-2H-5-tetrazolio]-1,3-benzene disulfonate), based on the enzymatic cleavage of WST tetrazolium salt to formazan by the succinate-tetrazolium reductase system of the respiratory chain of intact mitochondria. The assay was performed according to the instructions of the manufacturer (Roche Applied Science, Mannheim, Germany). After 3 h of incubation, the resulting color reaction was measured at 450 nm (with 655 nm as the reference wavelength) in a microplate reader (Bio-Rad, Munich, Germany)."}, "[2]": {"system": "SOD1 wt and SOD1G93A microglia", "experiment": "LPS-triggered cytokine/chemokine release of primary microglia (ELISA)", "type": "cell-based, mouse", "conditions": "18 hours; for proinflammatory cytokine release: SOD1 wt and SOD1G93A microglia", "description": "Primary cell cultures were prepared from whole brains of newborn (PO) mice and cultured in complete Dulbecco's modified Eagle's medium (DMEM, Invitrogen/Gibco, Karlsruhe, Germany), supplemented with 10% fetal calf serum (FCS, Invitrogen/Gibco), 100 U/ml penicillin and 100 μg/ml streptomycin (both Biochrom, Berlin, Germany) as previously described (Regen, et al. (2011) Brain, Behavior, and Immunity 25(5): 957-970). In brief, brains of newborn B6/SJL SOD1G93A and from B6/SJL SOD1wt, respectively, were liberated from meninges and blood vessels, washed with Hank's balanced salt solution (HBSS; Biochrom) and incubated with 2.5% trypsin (Biochrom) for 10 min at 37° C. The enzymatic reaction was stopped by addition of complete medium, supplemented with DNAse [5 mg/ml] (Worthington Biochemicals, Lakewood, N.J., USA). Remaining cell clusters were mechanically separated and the suspension was centrifuged at 900 rpm at 4° C. for 10 min. The supernatant was removed, cells were resuspended in fresh complete medium and seeded in 75 cm2, poly-L-lysine (PLL)-coated culture flasks. Immediately before being used, flasks were incubated with 100 μg/ml PLL (Invitrogen/Gibco) for 30 min at RT and excess of PLL was washed off by three rinses with sterile ddH2O. Subsequently, cultures were maintained in a humidified atmosphere with 5% CO2 at 37° C. On the next day, primary mixed-glial cultures were washed three times (PBS, Invitrogen/Gibco) and received fresh complete medium, the latter being repeated the following day. One week after seeding, microglial proliferation was stimulated by adding complete medium supplemented with 30% of L929-conditioned cell culture supernatant (see section “L929 Mouse Fibroblast Cultures” below). After another two days, microglial cells were harvested by shaking them off the astrocytic layer, taking advantage of their different adhesion properties. After washing with complete medium and counting, cells were plated in 96-well plates at a density of 15,000 cells/well for ELISA or were plated in 24-well plates at a density of 50,000 cells/well on PLL-coated coverslips for later immunocytochemical processing.\nPrimary cultures underwent five different general treatments: (a) Cells were left untreated in medium serving as controls. (b) Cells were stimulated with the TLR4 ligand LPS (E. coli R515; Axxora/Appotech TLR ligand set 1, APO.54N-018) for 18 hours at a final concentration of 10 ng/ml. (c) Cells underwent a treatment with Fasudil at 2 μM, 10 μM or 50 μM, respectively, for 18 hours. (d) Cells were stimulated with LPS, as described above, in the presence of various concentrations of Fasudil. (e) Cells were preincubated for 1 h, 4 h or 12 h, respectively with Fasudil at 50 μM, prior to a LPS challenge in the continued presence of Fasudil at 50 μM. Stimulation experiments were routinely carried out twice.\nFollowing microglial stimulations and treatments, culture supernatants were collected and stored at −20° C. until assayed. Supernatants were analyzed for the release of cyto- and chemokines by commercial enzyme-linked immunosorbent assay (ELISA) test systems. Levels of IL-6, CCL2 (monocyte chemoattractant protein, MCP-1), CCL3 (macrophage inflammatory protein, MIP-1α) and CCL5 (regulated upon activation normal T-cell expressed and presumably secreted, RANTES) and CXCL1 (Chemokine (C-X-C motif) ligand 1) were determined using DuoSet ELISA Development Kits (R&D Systems). TNFα (tumor necrosis factor α) was determined using MAXTM ELISA kit (Biolegend). Absorbance was measured at 450 nm (with a 540 nm reference wavelength) using a microplate reader (Bio-Rad)."}, "[3]": {"conditions": "LPS 10 ng/ml + Fasudil 50 μM, both genotypes"}},
  "data": [
    {"compound": "O=S(=O)(c1cccc2cnccc12)N1CCCNCC1", "note": "[Fasudil, 1-(5-isoquinolinesulfonyl)homopiperazine]", "values": [
      {"measurement": "rounded microglia", "setting": "[1]; d100, Fasudil 30, vehicle SOD1G93A 0.7±0.2%", "value": "0.5±0.1", "unit": "%"},
      {"measurement": "microglia with stout ramified processes", "setting": "[1]; d100, Fasudil 30, vehicle SOD1G93A 46.7±6.3%", "value": "70.8±5.3", "unit": "%"},
      {"measurement": "microglia with thin ramifications", "setting": "[1]; d100, Fasudil 30, vehicle SOD1G93A 52.6±6.3%", "value": "28.7±5.3", "unit": "%"},
      {"measurement": "microglial morphology", "setting": "[1]; disease end-stage, all treatment groups", "value": "no gross alterations"},
      {"measurement": "microglial metabolic activity (WST-1)", "setting": "primary microglia", "value": "no reduction in metabolic activity"},
      {"measurement": "proinflammatory cytokine release", "setting": "[2]; LPS 10 ng/ml + Fasudil 2 μM", "value": "not efficient in significantly reducing"},
      {"measurement": "proinflammatory cytokine release", "setting": "[2]; LPS 10 ng/ml + Fasudil 10 μM", "value": "not efficient in significantly reducing"},
      {"measurement": "release of CCL3", "setting": "[2]; [3]", "value": "markedly reduced"},
      {"measurement": "release of CXCL1", "setting": "[2]; [3]", "value": "markedly reduced"},
      {"measurement": "release of IL-6", "setting": "[2]; [3]", "value": "markedly reduced"},
      {"measurement": "release of RANTES", "setting": "[2]; [3]", "value": "markedly reduced"},
      {"measurement": "release of TNFα", "setting": "[2]; [3]", "value": "markedly reduced"},
      {"measurement": "change of CCL2 release", "setting": "[2]; LPS 10 ng/ml + Fasudil 50 μM, relative to LPS alone (100%), slightly increased/unaffected", "value": "+8.9%"}
    ]}
  ]
}
